Experimental data as given in PMC4303311 (Biochemistry, 2014).

Target: T1, bacteriorhodopsin (BR) (Halobacterium salinarum, UniProt P02945)
T1 sequence (P02945 14-262): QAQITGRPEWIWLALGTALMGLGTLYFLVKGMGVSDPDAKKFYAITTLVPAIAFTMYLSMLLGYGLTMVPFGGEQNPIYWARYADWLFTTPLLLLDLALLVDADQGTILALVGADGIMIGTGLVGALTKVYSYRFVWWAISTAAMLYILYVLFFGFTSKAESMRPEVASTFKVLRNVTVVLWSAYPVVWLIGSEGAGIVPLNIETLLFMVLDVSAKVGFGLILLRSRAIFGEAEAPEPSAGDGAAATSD
Assay: low-temperature FTIR-difference spectroscopy
Assay type: binding
Conditions: covalent; protonated Schiff base; 80 K; native purple membrane

For `CC1=C(/C=C/C(C)=C/C=C/C(C)=C/C=O)C(C)(C)CCC1` [A1 retinal, all-trans-retinal], which “low-temperature FTIR-difference spectroscopy” value is on record?
Its value is “Negative bands appear at similar frequencies in the FTIR-difference spectrum of CaChR1 and BR”.
